Measurements from PMC9446799, “Preparation of a camptothecin analog FLQY2 self-micelle solid dispersion with improved solubility and bioavailability” (Journal of Nanobiotechnology, 2022).
Counter-ions that a name gives are not always drawn.

What was measured:
[1] = test system: HCT 116 and MIA PaCa-2 cells; assay: MTT cytotoxicity assay; type: cell-based, Human
Description: (§1) The sample preparation: FLQY2 was dissolved in DMSO as a stock solution, and the stock solution was diluted by DMEM medium as a working solution. FLQY2-SD/ FLQY2-PM powder was dissolved in water, then the FLQY2-SD/FLQY2-PM solution was diluted by DMEM medium.
(§2) The cells were cultured in McCoy’s 5A medium for HCT 116 or DMEM medium for MIA PaCa-2 cells. All mediums contained 10% FBS and 1% penicillin–streptomycin solution. The cytotoxicity of FLQY2/FLQY2-SD was measured against these cells using an MTT assay. Briefly, 1 × 10^4 cells per well were seeded into 96 well plates for 24 h. Different concentrations of FLQY2 /FLQY2-SD solution and blank fresh medium were added to the plates and then incubated for 72 h. After adding MTT solution (5 mg/mL) for 4 h, 150 μL of DMSO was added to dissolve the formazan crystals. Absorbance at 570 nm with the control wavelength of 630 nm was used in infinite M200 pro (Tecan, Switzerland). Cell viability was expressed as a percentage relative to the blank control.

[2] = MTT cytotoxicity assay; type: cell-based, Human; settings: human
Description: as §1, §2

[3] = test system: HCT 116 and Hep G2 cell lines; design: method as in PMID 31309350; settings: cited from earlier work
[4] = Inhibition of crystallization (solvent-shift method); type: physicochemical; settings: for saturated concentration of FLQY2: in Soluplus aqueous solution (2 mg/mL), 37 °C
Description: Inhibition of crystallization was studied using the solvent-shift method. 3 mL FLQY2 DMSO solution (1 mg/mL) was mixed respectively with six different 30 mL aqueous solution including six carriers (2 mg/mL) and stirred at 120 r/min under 37 °C. 0.5 mL solution was collected at 0.0833, 0.5, 1, 2, 4, 6, 8 h, filtered through 0.22 μm filters, and determined the dissolved FLQY2 by HPLC.

[5] = test system: P-gp; settings: cited from earlier work
[6] = Identification of metabolites in plasma, urine and feces (UPLC-TripleTOF); settings: ESI−, [M-H]-; F, U, P not defined in the table (feces, urine, plasma samples analysed)
Description: The plasma, urine, and feces samples were processed as described above without IS, and the remaining volumes were made up of the precipitant. Chromatographic analysis was performed on an UltiMate 30 (Thermo Fisher Scientific, San Jose, CA, USA). Separation was carried out on an ACQUITY UPLC HSS T3 (1.8 μm, 2.1 × 100 mm) at 40 °C, 2 µL injection volume. In the positive ion mode, the mobile phase consisted of water containing 0.1% formic acid (A) and acetonitrile containing 0.1% formic acid (B). The gradient elution was performed with 5% B for 1.5 min, increasing to 10% B at 2.5 min, then ramping to 40% B at 14 min, rising to 95% B at 22 min, and remaining at 95% B until 25 min, and finally, the column was reconditioned with 5% B for 5 min. The mobile phase consisted of water containing 2 mM ammonium acetate (A) and acetonitrile (B) in the negative ion mode. The gradient elution was the same as in the positive ion mode.
Mass spectrometric analysis was acquired by Peakview 2.2 and MetabolitePilot 2.0.4 software using a quadrupole time-of-flight mass spectrometry (TripleTOF™ 5600, AB Sciex Corporation., Foster City, CA) with MS scans and information dependent acquisition (IDA) MS/MS scans. The mass spectrometer was operated in both positive and negative ion mode with electrospray ionization (ESI) source at 650 ℃. […]

[7] = test system: HT-29 tumor; assay: Anticancer activity in vivo in HT-29 tumor-bearing mice; design: species or system BALB/c mice; settings: 100 mpk, i.p./QW, day 28
Description: 0.1 mL suspension of HT-29 cells were inoculated in female BALB/c mice at a density of 2 × 10^7/mL. After the tumors grew to 100–200 mm^3 (the day recorded as D0), the mice were randomly grouped and administered with Irinotecan hydrochloride (100 mpk, i.p./QW) (n = 6), Paclitaxel-albumin (15 mpk, i.v./Q4D) (n = 6), FLQY2-SD (1.5 mpk, p.o./QW) (n = 6), FLQY2-SD (1 mpk, p.o./QW) (n = 6), and saline as a blank control (n = 12). The tumor volume and body weight of the mice were recorded every 2 days. On day 28, the mice were sacrificed, and the tumors were surgically removed and weighed. Some parameters were calculated as follows.
tumor volume (TV): TV=1/2×ab^2
relative tumor volume (RTV): RTV=Vt/V0
tumor growth inhibition (TGI): TGI=(1-VT28-VT0/VC28-VC0)×100%
Where a and b are the length and width of the tumors; V0 and Vt are the tumor volume measured at D0 and at each measurement time Dt; VT28 and VT0 are the mean tumor volume in the treatment group at D28 and D0; VC28 and VC0 are the mean tumor volume in the negative control group at D28 and D0.

Molecule: CC[C@@]1(O)C(=O)OCc2c1cc1n(c2=O)Cc2c-1nc1cc3c(cc1c2-c1ccc(C(F)(F)F)cc1)OCO3 [FLQY2, 7-p-trifluoromethylphenyl-FL118]
- cytotoxicity [1]: dose-dependent toxicity
- viability at 2 h, 1 µM [2]: > 92.5%
- IC50 [3]: nM level
- saturated concentration of FLQY2 ([4]; at 5 min): 51.60 µg/mL
- saturated concentration of FLQY2 ([4]; at 8 h): 48.76 µg/mL
- crystallization inhibition outcome ([4]; mixture including PEG4000, PEG6000, PVP Va64, HS 15 and P407 (2 mg/mL)): crystallization and precipitation
- efflux ratio [5]: < 2

Molecule: Polyvinyl caprolactam-polyvinyl acetate-polyethylene glycol graft copolymer [Soluplus®]
- cell viability [1]: exceeded 91.0 ± 3.8%

Molecule: CC[C@@]1(O)OCc2c1cc1n(c2=O)Cc2c-1nc1cc3c(cc1c2-c1ccc(C(F)(F)F)cc1)OCO3 [M3]
- Source (biological sample in which detected) [6]: F, U, P

Molecule: C=c1c(=O)n2c(c/c1=C(/O)CC)-c1nc3cc4c(cc3c(-c3ccc(C(F)(F)F)cc3)c1C2)OCO4 [M1]
- Source (biological sample in which detected) [6]: F, U, P

Molecule: CCc1c2c(nc3ccc(OC(=O)N4CCC(N5CCCCC5)CC4)cc13)-c1cc3c(c(=O)n1C2)COC(=O)[C@]3(O)CC [Irinotecan hydrochloride]
- TGI [7]: 66.5%
